Patent US20230023009A1, “HETEROCYCLIC COMPOUNDS AND METHODS OF USE THEREOF” (SPARCBIO LLC, priority 2020, published 2023)

Assays:
hERG potassium channel = target: T1, hERG potassium channel (Homo sapiens, UniProt Q12809); assay: hERG inhibition assay (manual whole-cell patch-clamp, CHO cells); type: cell-based
T1 construct: host or cells: CHO
Experimental: Compounds were tested for the potential to inhibit the hERG potassium channel. It is known that inhibition of the hERG channel may cause QT prolongation and increase the risk of cardiac arrhythmias. Therefore, to avoid cardiotoxicity, a compound with relatively low or no inhibition of the channel is desirable. Manual whole-cell patch-clamp recordings were made in Chinese hamster ovary (CHO) cells stably expressing hERG channels (B'Sys, Switzerland). Standard intracellular and bath solutions for hERG current detection were used. Cells were exposed to test compounds at 6 concentrations prepared by 1:3 serial dilution of compounds from a top starting concentration of 30 μM. Currents were elicited by stepping the voltage from a holding potential of −80 mV to −50 mV (20 ms) and then stepping to +40 mV (4 s). A subsequent step to −50 mV (4 s) was used to elicit a tail current which was used for data analysis. Current recordings were made in triplicate using three different cells. Data normalized to the activity in vehicle (0.1 or 0.3% DMSO) were fit with 4-parameter non-linear regression, and IC50 values were determined from the dose-response curves, using GraphPad Prism software.

NCI-H358 cells = assay: 3D cell proliferation assay (Cell Titer-Glo 3D, 7 days); type: cell-based; details: Homo sapiens, NCI-H358, 168 h, NCI-H358 3D, ultra-low attachment plate
Experimental: NCI-H358 cells (ATCC® CRL-5807™) were plated in a 384-well Black/Clear Round Bottom Ultra-Low Attachment Microplate (Corning) in medium (RPMI-1640+10% FBS) at a density of 1000 cells in 50 μL per well, then incubated overnight at 37° C. and 5% CO2. Cells were treated with test compounds at 9 concentrations within a specified concentration range (e.g., 0.5 nM-10 μM) for generation of dose response curves. Test compounds were prepared by 1:3 serial dilution in DMSO from a specified starting concentration (e.g., 20 μM, 2 μM or 0.2 μM) and then added to wells of the assay plate in a total volume of 150 nL DMSO. The cells were further incubated at 37° C. and 5% CO2 for 7 days. Cell viability was assessed by adding 40 μL of Cell Titer-Glo® 3D reagent (Cat. No.: G9683, Promega) to each well and reading luminescence after mixing and incubation of the samples. The IC50 value of each test compound was calculated with XLFit curve fitting software.

T1 sequence (Q12809 whole entry): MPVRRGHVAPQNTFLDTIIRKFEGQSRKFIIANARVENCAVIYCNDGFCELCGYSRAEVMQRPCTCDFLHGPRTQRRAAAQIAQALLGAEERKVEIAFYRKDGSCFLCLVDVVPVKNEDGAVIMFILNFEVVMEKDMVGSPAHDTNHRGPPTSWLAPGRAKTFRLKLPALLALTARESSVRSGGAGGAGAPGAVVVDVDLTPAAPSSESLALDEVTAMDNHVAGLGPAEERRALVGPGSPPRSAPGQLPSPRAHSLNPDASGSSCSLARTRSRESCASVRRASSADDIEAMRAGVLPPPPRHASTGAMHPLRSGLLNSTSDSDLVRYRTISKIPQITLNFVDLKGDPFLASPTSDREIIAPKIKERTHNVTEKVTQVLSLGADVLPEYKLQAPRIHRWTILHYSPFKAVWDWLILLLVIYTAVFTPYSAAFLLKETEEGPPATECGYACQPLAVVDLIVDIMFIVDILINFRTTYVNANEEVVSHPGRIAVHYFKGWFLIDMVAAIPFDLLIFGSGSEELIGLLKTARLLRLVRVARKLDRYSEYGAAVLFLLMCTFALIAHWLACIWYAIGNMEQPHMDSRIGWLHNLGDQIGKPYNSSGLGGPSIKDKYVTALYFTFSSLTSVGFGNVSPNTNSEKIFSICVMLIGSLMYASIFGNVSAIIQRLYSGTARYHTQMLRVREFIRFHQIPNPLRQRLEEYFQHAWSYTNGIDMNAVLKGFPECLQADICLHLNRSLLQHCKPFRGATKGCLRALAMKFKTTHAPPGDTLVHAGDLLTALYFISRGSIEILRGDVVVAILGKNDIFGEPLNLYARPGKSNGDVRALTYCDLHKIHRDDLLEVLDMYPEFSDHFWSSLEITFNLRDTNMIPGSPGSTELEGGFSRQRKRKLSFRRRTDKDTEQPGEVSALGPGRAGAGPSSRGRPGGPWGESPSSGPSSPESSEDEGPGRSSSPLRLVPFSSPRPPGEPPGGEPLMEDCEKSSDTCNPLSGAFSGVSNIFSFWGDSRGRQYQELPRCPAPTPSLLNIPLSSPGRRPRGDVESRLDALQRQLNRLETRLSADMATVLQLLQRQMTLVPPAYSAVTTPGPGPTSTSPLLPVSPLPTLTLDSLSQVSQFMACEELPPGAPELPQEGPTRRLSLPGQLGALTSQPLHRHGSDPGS

C=C(F)C(=O)N1CCN(c2nc(OC[C@@H]3CCCN3C)nc3c2CO[C@@H](c2cccc4cccc(Cl)c24)C3)C[C@@H]1CC#N (single isomer, unassigned) [43 (Isomer B)]
IC50 (hERG potassium channel): 3.61 µM | IC50 (NCI-H358 cells): ≤ 0.1 µM
